Read-outs that look alike come from different tables or passages of the source.
Experiments:
SARS-CoV-2 3CL protease = target: T1, SARS-CoV-2 3CL protease (Severe acute respiratory syndrome coronavirus 2, UniProt P0DTD1); assay: SARS-CoV-2 Coronavirus 3C Protease FRET Assay; assay type: biochemical; conditions: Examples 14-78 and 114 (second head of Table 2); Morrison equation fit, 15 nM enzyme, 25 μM peptide substrate; read-out: Geometric Mean Ki (nM) IC50
T1 construct: measures the activity of full-length SARS-CoV-2 3CL protease

[1] = tested on: SARS-CoV-2 (USA_WA1/2020); assay: Antiviral Activity from SARS-CoV-2 Infection (cytopathic effect, Cell Titer-Glo); assay type: cell-based; conditions: VeroE6 cells enriched for hACE2, MOI 0.002, 3-day incubation, tested alone or with P-gp inhibitor CP-100356 2 μM (table does not say which), read-out: Geometric Mean EC50
[2] = Severe acute respiratory syndrome coronavirus 2, Vero C1008, 72 h

SMILES	Ki (SARS-CoV-2 3CL protease) [nM]	EC50 [1, 2] [nM]	EC50 [1] [nM]
CC(C)[C@H](NC(=O)C(F)(F)F)C(=O)N1C[C@H]2[C@@H]([C@H]1C(=O)NC(C[C@@H]1CCNC1=O)C(=O)COc1ccc(F)cc1F)C2(C)C (mixture of isomers) [Example 35, (1R,2S,5S)-N-{(2RS)-4-(2,4-difluorophenoxy)-3-oxo-1-[(3S)-2-oxopyrrolidin-3-yl]butan-2-yl}-6,6-dimethyl-3-[N-(trifluoroacetyl)-L-valyl]-3-azabicyclo[3.1.0]hexane-2-carboxamide]	2.76	93.8	–
CC(C)[C@H](NC(=O)C(F)(F)F)C(=O)N1CC[C@@H](C)C[C@H]1C(=O)N[C@@H](C[C@@H]1CCNC1=O)C(=O)COc1ccc(F)cc1F (relative stereo) [Example 69, (2R*,4S*)-N-{(2S)-4-(2,4-difluorophenoxy)-3-oxo-1-[(3S)-2-oxopyrrolidin-3-yl]butan-2-yl}-4-methyl-1-[N-(trifluoroacetyl)-L-valyl]piperidine-2-carboxamide]	219	562	–
COCC(=O)[C@H](C[C@@H]1CCNC1=O)NC(=O)[C@@H]1CC(C(C)(C)C)CCN1C(=O)[C@@H](NS(=O)(=O)C(F)(F)F)C(C)C (single isomer, unassigned) [Example 15, (2R*,4S*)-4-tert-butyl-N-{(2S)-4-methoxy-3-oxo-1-[(3S)-2-oxopyrrolidin-3-yl]butan-2-yl}-1-[N-(trifluoromethanesulfonyl)-L-valyl]piperidine-2-carboxamide, DIAST-1]	–	272	–
CC(C)[C@H](NS(C)(=O)=O)C(=O)N1CCC(C(F)(F)F)C[C@H]1C(=O)N[C@@H](C[C@@H]1CCNC1=O)C(=O)COc1ccc(F)cc1F (single isomer, unassigned) [Example 41, (2R*,4S*)-N-{(2S)-4-(2,4-difluorophenoxy)-3-oxo-1-[(3S)-2-oxopyrrolidin-3-yl]butan-2-yl}-1-[N-(methanesulfonyl)-L-valyl]-4-(trifluoromethyl)piperidine-2-carboxamide, DIAST-2]	–	–	224
CC(C)[C@H](NS(C)(=O)=O)C(=O)N1CCC2(CC2)C[C@H]1C(=O)N[C@@H](C[C@@H]1CCNC1=O)C(=O)COc1ccc(F)cc1F (single isomer, unassigned) [Example 59, (5R*)-N-{(2S)-4-(2,4-difluorophenoxy)-3-oxo-1-[(3S)-2-oxopyrrolidin-3-yl]butan-2-yl}-6-[N-(methanesulfonyl)-L-valyl]-6-azaspiro[2.5]octane-5-carboxamide, DIAST-1]	9.27	–	299
CC(C)[C@H](NS(C)(=O)=O)C(=O)N1CCC(C)(C)CC1C(=O)N[C@@H](C[C@@H]1CCNC1=O)C(=O)COc1ccc(F)cc1F (single isomer, unassigned) [Example 60, (2R*)-N-{(2S)-4-(2,4-difluorophenoxy)-3-oxo-1-[(3S)-2-oxopyrrolidin-3-yl]butan-2-yl}-1-[N-(methanesulfonyl)-L-valyl]-4,4-dimethylpiperidine-2-carboxamide]	21.8	456	–
CC(C)[C@H](NS(C)(=O)=O)C(=O)N1CCC(C(F)(F)F)C[C@H]1C(=O)N[C@@H](C[C@@H]1CCNC1=O)C(=O)COc1ccc(F)cc1F (single isomer, unassigned) [Example 71, (2R*,4S*)-N-{(2S)-4-(2,4-difluorophenoxy)-3-oxo-1-[(3S)-2-oxopyrrolidin-3-yl]butan-2-yl}-1-[N-(methanesulfonyl)-L-valyl]-4-(trifluoromethyl)piperidine-2-carboxamide, DIAST-1]	–	–	8310
Cc1ccc(OCC(=O)[C@H](C[C@@H]2CCNC2=O)NC(=O)[C@@H]2[C@@H]3[C@H](CN2C(=O)[C@@H](NC(=O)C(F)(F)F)C(C)C)C3(C)C)cn1 [Example 18, (1R,2S,5S)-6,6-dimethyl-N-{(2S)-4-[(6-methylpyridin-3-yl)oxy]-3-oxo-1-[(3S)-2-oxopyrrolidin-3-yl]butan-2-yl}-3-[N-(trifluoroacetyl)-L-valyl]-3-azabicyclo[3.1.0]hexane-2-carboxamide]	–	114	–
Cc1ccc(OCC(=O)[C@H](C[C@@H]2CCNC2=O)NC(=O)[C@@H]2[C@@H]3[C@H](CN2C(=O)[C@@H](NC(=O)C(F)(F)F)C(C)(C)C)C3(C)C)cn1 [Example 19, (1R,2S,5S)-6,6-dimethyl-N-{(2S)-4-[(6-methylpyridin-3-yl)oxy]-3-oxo-1-[(3S)-2-oxopyrrolidin-3-yl]butan-2-yl}-3-[3-methyl-N-(trifluoroacetyl)-L-valyl]-3-azabicyclo[3.1.0]hexane-2-carboxamide]	–	37.2	–
CC(C)(C)[C@H](NC(=O)C(F)(F)F)C(=O)N1C[C@H]2[C@@H]([C@H]1C(=O)N[C@@H](C[C@@H]1CCNC1=O)C(=O)COc1ccccc1)C2(C)C [Example 20, (1R,2S,5S)-6,6-dimethyl-3-[3-methyl-N-(trifluoroacetyl)-L-valyl]-N-{(2S)-3-oxo-1-[(3S)-2-oxopyrrolidin-3-yl]-4-phenoxybutan-2-yl}-3-azabicyclo[3.1.0]hexane-2-carboxamide]	–	14.7	–
CCc1cc(OCC(=O)[C@H](C[C@@H]2CCNC2=O)NC(=O)[C@@H]2[C@@H]3[C@H](CN2C(=O)[C@@H](NC(=O)C(F)(F)F)C(C)(C)C)C3(C)C)n(C)n1 [Example 26, (1R,2S,5S)-N-{(2S)-4-[(3-ethyl-1-methyl-1H-pyrazol-5-yl)oxy]-3-oxo-1-[(3S)-2-oxopyrrolidin-3-yl]butan-2-yl}-6,6-dimethyl-3-[3-methyl-N-(trifluoroacetyl)-L-valyl]-3-azabicyclo[3.1.0]hexane-2-carboxamide]	–	171	–
CC(C)[C@H](NC(=O)C(F)(F)F)C(=O)N1C[C@H]2[C@@H]([C@H]1C(=O)N[C@@H](C[C@@H]1CCNC1=O)C(=O)COc1ccc(F)nc1)C2(C)C [Example 31, (1R,2S,5S)-N-{(2S)-4-[(6-fluoropyridin-3-yl)oxy]-3-oxo-1-[(3S)-2-oxopyrrolidin-3-yl]butan-2-yl}-6,6-dimethyl-3-[N-(trifluoroacetyl)-L-valyl]-3-azabicyclo[3.1.0]hexane-2-carboxamide]	–	167	–
COC(=O)N[C@H](C(=O)N1C[C@H]2[C@@H]([C@H]1C(=O)N[C@@H](C[C@@H]1CCNC1=O)C(=O)COc1cc(C(F)(F)F)nn1C)C2(C)C)C(C)C [Example 36, methyl {(2S)-1-[(1R,2S,5S)-6,6-dimethyl-2-({(2S)-4-{[1-methyl-3-(trifluoromethyl)-1H-pyrazol-5-yl]oxy}-3-oxo-1-[(3S)-2-oxopyrrolidin-3-yl]butan-2-yl}carbamoyl)-3-azabicyclo[3.1.0]hexan-3-yl]-3-methyl-1-oxobutan-2-yl}carbamate]	–	256	–
CCc1cc(OCC(=O)[C@H](C[C@@H]2CCNC2=O)NC(=O)[C@@H]2[C@@H]3[C@H](CN2C(=O)[C@@H](NC(=O)OC)C(C)(C)C)C3(C)C)n(C)n1 [Example 37, methyl {(2S)-1-[(1R,2S,5S)-2-({(2S)-4-[(3-ethyl-1-methyl-1H-pyrazol-5-yl)oxy]-3-oxo-1-[(3S)-2-oxopyrrolidin-3-yl]butan-2-yl}carbamoyl)-6,6-dimethyl-3-azabicyclo[3.1.0]hexan-3-yl]-3,3-dimethyl-1-oxobutan-2-yl}carbamate]	–	900	–
CCn1nc(C)cc1OCC(=O)[C@H](C[C@@H]1CCNC1=O)NC(=O)[C@@H]1[C@@H]2[C@H](CN1C(=O)[C@@H](NC(=O)C(F)(F)F)C(C)C)C2(C)C [Example 43, (1R,2S,5S)-N-{(2S)-4-[(1-ethyl-3-methyl-1H-pyrazol-5-yl)oxy]-3-oxo-1-[(3S)-2-oxopyrrolidin-3-yl]butan-2-yl}-6,6-dimethyl-3-[N-(trifluoroacetyl)-L-valyl]-3-azabicyclo[3.1.0]hexane-2-carboxamide]	–	642	–
CCc1cc(OCC(=O)[C@H](C[C@@H]2CCNC2=O)NC(=O)[C@@H]2[C@@H]3[C@H](CN2C(=O)[C@@H](NC(=O)C(F)(F)F)C(C)C)C3(C)C)n(C)n1 [Example 45, (1R,2S,5S)-N-{(2S)-4-[(3-ethyl-1-methyl-1H-pyrazol-5-yl)oxy]-3-oxo-1-[(3S)-2-oxopyrrolidin-3-yl]butan-2-yl}-6,6-dimethyl-3-[N-(trifluoroacetyl)-L-valyl]-3-azabicyclo[3.1.0]hexane-2-carboxamide]	–	384	–
Cc1nsnc1OCC(=O)[C@H](C[C@@H]1CCNC1=O)NC(=O)[C@@H]1[C@@H]2[C@H](CN1C(=O)[C@@H](NC(=O)C(F)(F)F)C(C)C)C2(C)C [Example 46, (1R,2S,5S)-6,6-dimethyl-N-{(2S)-4-[(4-methyl-1,2,5-thiadiazol-3-yl)oxy]-3-oxo-1-[(3S)-2-oxopyrrolidin-3-yl]butan-2-yl}-3-[N-(trifluoroacetyl)-L-valyl]-3-azabicyclo[3.1.0]hexane-2-carboxamide]	8.21	–	–
CC(C)[C@H](NC(=O)C(F)(F)F)C(=O)N1C[C@H]2[C@@H]([C@H]1C(=O)N[C@@H](C[C@@H]1CCNC1=O)C(=O)COc1nnc(C(C)(C)C)n1C)C2(C)C [Example 78, (1R,2S,5S)-N-{(2S)-4-[(5-tert-butyl-4-methyl-4H-1,2,4-triazol-3-yl)oxy]-3-oxo-1-[(3S)-2-oxopyrrolidin-3-yl]butan-2-yl}-6,6-dimethyl-3-[N-(trifluoroacetyl)-L-valyl]-3-azabicyclo[3.1.0]hexane-2-carboxamide]	–	7370	–
CC(C)(C)[C@H](NS(=O)(=O)C(F)(F)F)C(=O)N1C[C@H]2[C@@H]([C@H]1C(=O)N[C@@H](C[C@@H]1CCNC1=O)C(=O)COc1ccc(F)c(F)c1)C2(C)C [Example 114, (1R,2S,5S)-N-{(2S)-4-(3,4-difluorophenoxy)-3-oxo-1-[(3S)-2-oxopyrrolidin-3-yl]butan-2-yl}-6,6-dimethyl-3-[3-methyl-N-(trifluoromethanesulfonyl)-L-valyl]-3-azabicyclo[3.1.0]hexane-2-carboxamide]	2.53	–	–

From patent publication US20250304559A1, “Ether-Linked Antiviral Compounds” (Pfizer Inc., priority 2021, published 2025)
